Data reported in patent publication US20060025326A1, “Method for treating carrier particles and its use” (LAB Pharma Oy, priority 2002, published 2006).

Assay: Microcalorimetric study of amorphous material
Format: physicochemical
Details: microcalorimetric study / detected in this work

amorphous (unstable) material: some amorphous material
Compound: CC(C)(C)NCC(O)c1ccc(O)c(CO)c1 (stereo not shown) [salbutamol]
